Assay results taken from ChEMBL document CHEMBL1933054, “Structure-based design of PDK1 inhibitors” (Bioorg Med Chem Lett, 2012).

Experiments:
[1] = target: Cyclin-dependent kinase 2 (Homo sapiens, UniProt P24941); assay: Inhibition of CDK2
[2] = target: T1, Receptor-type tyrosine-protein kinase FLT3 (Homo sapiens, UniProt P36888); assay: Inhibition of Flt3
T1 sequence (P36888 whole entry): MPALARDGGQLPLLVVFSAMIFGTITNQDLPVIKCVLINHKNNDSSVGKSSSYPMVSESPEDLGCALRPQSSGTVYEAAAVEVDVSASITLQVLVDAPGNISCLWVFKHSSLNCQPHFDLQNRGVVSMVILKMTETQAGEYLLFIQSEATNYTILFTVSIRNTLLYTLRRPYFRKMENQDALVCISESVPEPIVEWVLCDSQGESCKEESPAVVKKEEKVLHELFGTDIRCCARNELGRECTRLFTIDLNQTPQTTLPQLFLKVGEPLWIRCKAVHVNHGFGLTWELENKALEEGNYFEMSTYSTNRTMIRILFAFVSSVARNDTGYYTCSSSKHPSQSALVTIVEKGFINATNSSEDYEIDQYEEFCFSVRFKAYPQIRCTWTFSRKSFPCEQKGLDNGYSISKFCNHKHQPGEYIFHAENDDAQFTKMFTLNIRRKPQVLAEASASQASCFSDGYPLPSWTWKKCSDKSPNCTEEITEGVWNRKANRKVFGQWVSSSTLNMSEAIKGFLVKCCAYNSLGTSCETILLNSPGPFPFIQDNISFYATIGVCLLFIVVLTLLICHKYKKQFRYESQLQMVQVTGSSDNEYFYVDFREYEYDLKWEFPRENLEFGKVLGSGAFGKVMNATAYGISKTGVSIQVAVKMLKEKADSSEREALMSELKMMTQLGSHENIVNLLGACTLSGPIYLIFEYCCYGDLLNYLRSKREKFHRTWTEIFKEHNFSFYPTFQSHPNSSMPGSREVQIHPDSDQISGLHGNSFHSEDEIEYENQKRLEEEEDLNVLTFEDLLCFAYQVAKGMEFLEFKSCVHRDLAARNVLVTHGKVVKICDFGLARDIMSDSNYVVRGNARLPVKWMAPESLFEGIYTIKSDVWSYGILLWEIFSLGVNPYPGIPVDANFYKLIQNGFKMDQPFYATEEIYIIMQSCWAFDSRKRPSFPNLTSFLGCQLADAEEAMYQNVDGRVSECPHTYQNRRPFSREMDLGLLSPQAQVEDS

[3] = target: Tyrosine-protein kinase JAK2 (Homo sapiens, UniProt O60674); assay: Inhibition of JAK2
[4] = target: T2, 3-phosphoinositide-dependent protein kinase 1 (Homo sapiens, UniProt O15530); assay: Inhibition of PDK1 using [gamma33P]-ATP as substrate after 30 mins by scintillation counting
T2 sequence (O15530 whole entry): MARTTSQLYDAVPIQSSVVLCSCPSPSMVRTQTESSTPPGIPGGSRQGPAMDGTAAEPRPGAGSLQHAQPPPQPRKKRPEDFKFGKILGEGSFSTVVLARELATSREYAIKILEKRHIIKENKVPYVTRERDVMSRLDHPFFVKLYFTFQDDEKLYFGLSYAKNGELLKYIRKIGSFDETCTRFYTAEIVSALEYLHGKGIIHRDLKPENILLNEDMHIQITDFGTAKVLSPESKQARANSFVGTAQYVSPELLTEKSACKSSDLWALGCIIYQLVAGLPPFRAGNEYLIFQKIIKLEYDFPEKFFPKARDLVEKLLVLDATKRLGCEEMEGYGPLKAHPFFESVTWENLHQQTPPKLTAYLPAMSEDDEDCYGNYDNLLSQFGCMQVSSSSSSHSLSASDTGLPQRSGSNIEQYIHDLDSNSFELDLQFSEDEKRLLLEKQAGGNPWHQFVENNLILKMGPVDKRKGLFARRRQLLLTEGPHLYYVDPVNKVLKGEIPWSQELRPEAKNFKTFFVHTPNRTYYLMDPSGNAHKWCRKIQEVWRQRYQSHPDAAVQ

[5] = Oral bioavailability in mouse; format: ADME, organism-based; conditions: in vivo
[6] = Half life in human liver microsomes; format: ADME, Microsome

Tyrosine-protein kinase JAK2, sequence (O60674 whole entry): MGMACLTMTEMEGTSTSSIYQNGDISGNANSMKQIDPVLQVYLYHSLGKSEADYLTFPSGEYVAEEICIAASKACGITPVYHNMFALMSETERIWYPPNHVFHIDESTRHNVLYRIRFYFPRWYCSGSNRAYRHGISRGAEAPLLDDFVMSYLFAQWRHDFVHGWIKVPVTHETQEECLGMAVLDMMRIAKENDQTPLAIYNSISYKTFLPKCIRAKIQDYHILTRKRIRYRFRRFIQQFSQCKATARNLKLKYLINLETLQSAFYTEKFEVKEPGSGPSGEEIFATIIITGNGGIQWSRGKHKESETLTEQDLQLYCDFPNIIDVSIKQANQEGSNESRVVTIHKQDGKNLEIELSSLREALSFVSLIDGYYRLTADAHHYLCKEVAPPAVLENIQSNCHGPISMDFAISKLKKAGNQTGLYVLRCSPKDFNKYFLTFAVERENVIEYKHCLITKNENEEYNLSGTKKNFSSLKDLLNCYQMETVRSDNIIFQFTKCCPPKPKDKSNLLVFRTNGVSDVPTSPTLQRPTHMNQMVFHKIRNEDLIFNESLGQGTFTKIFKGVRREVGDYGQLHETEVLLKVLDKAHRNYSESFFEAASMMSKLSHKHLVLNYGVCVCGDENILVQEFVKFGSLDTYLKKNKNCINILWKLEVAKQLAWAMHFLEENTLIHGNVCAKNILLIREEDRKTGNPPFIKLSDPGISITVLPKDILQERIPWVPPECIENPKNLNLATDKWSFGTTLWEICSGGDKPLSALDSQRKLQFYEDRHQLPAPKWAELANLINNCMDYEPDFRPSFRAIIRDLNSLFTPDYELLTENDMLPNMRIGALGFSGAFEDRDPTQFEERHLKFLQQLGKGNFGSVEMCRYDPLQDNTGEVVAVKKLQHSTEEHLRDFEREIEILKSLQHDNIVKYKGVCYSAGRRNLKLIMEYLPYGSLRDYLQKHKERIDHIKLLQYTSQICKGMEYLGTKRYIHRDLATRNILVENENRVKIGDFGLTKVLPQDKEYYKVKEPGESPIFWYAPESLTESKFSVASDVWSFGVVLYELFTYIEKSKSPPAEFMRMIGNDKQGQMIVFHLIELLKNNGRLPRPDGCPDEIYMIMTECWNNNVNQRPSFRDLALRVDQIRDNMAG

| SMILES | IC50 [1] [nM] | IC50 [2] [nM] | IC50 [3] [nM] | IC50 [4] [nM] | bioavailability [5] [%] | half-life [6] [h] |
| --- | --- | --- | --- | --- | --- | --- |
| CC(C)(C(N)=O)C(=O)NCCCNc1nc(Nc2cccc(NC(=O)N3CCCC3)c2)ncc1Br | 1500 | – | – | – | – | – |
| Cc1cnc2nc1-c1cccc(c1)OCC/C=C/CN(C)Cc1cccc(c1)N2 | 150 | 22 | 180 | 1400 | – | – |
| CN1C/C=C/CCOc2cccc(c2)-c2nc(nc3[nH]cnc23)Nc2cccc(c2)C1 | 4100 | 58 | – | 390 | – | – |

Second part, the molecule after the results:

| IC50 [1] [nM] | IC50 [2] [nM] | IC50 [3] [nM] | IC50 [4] [nM] | bioavailability [5] [%] | half-life [6] [h] | SMILES |
| --- | --- | --- | --- | --- | --- | --- |
| – | – | – | – | 65 | > 1 | COc1ccc(-c2nc(Nc3cccc(NC(=O)N4CCCC4)c3)nc3nc[nH]c23)cc1 |
| 7000 | 7300 | 830 | 1600 | – | – | Oc1ccc(-c2nc(Nc3cccc(Cl)c3)nc3[nH]cnc23)cc1 |
| > 10000 | 350 | 330 | 98 | – | – | COc1ccc(-c2nc(Nc3cccc(NC(=O)CN)c3)nc3[nH]cnc23)cc1OC |
